Assays:
Assay type in all cases: in vivo, rat
[1] = tested on: Musculus extensor digitorum longus (EDL); experiment: Ischemic injury of skeletal muscle (EDL), compartment pressure
Method: On the hind leg, the large vessels entering the Musculus extensor digitorum longus (EDL) were occluded for 1-3 hours by applying external pressure load (Cf. Jennische & Hansson, 1987; Jennische, Skottner & Hansson, 1987). Thereafter, the blood flow was allowed to resume, and the muscle enclosures and the skin incision repaired and sutured. […] A CS developed as the tissue and the interstitial tissue accumulated fluid in such a closed compartment and additionally the muscle tissue turned swollen and oedematous. The pressure within such an enclosed compartment increased, resulting in the development of a CS. Surgical intervention was required to prevent that parts of the skeletal muscle tissue became necrotic, if there was no additional treatment. […] Thus, treatment with AF-16 prevented the development of a CS, eventually reducing the tissue damage and loss.

[2] = tested on: inflammation markers IL-1, IL-6, and TNF-a; experiment: Inflammation markers in CSF of HSV-1 infected rats; details: day 6, 1 or 10 pg intranasally twice daily, n=3
Method: To test that hypothesis, adult rats were infected by having a solution of the herpes simplex virus type 1 (HSV-1; strain 2762, batch 041028; 1.7×10^7 PFU/mL) instilled in their right nostril. Half of the animals received 10 min later 25 μL (1 or 10 pg) of AF-16 in their right nostril, and had thereafter the same dose of AF-16 instilled every morning at 8 AM and every night at 6 PM until the experiment was terminated on day 6. The other half of the HSV-1 infected rats received at the same time intervals 25 μL of the vehicle, phosphate buffered saline. On day 6, cerebrospinal fluid (CSF) samples were taken from the animals, either treated with AF-16 (n=3), or the vehicle (n=3), according to the procedure described by Huang, Saljo and Hansson (1996). […] It is concluded that treatment with AF-16 is not likely to improve the survival of rodents suffering from HSV-1 encephalitis by altering the inflammatory response, but by normalizing the intracranial pressure, thereby preventing prevalence of high ICP in a CC and thereby the development of a CS. The deleterious effects caused by the HSV-1 encephalitis were thus considered to be due to that AF hampered the development of a CS.

HSV-1 infected rats = experiment: Intracranial pressure (ICP) and neurological symptoms in HSV-1 infected rats, fibre optic pressure sensor
Method: Adult rats were infected by having a solution of the Herpes Simplex virus type 1 (HSV-1; strain 2762, batch 041028; 1.7×10^7 PFU/mL; 25 pL) instilled in their right nostril. One group of animals (n=6) received 10 min after the infection 25 pL (10 pg) of AF-16 in their right nostril, and had thereafter the same dose of AF-16 instilled twice daily, every morning at 8 AM and every night at 6 PM, until the experiment was terminated on day 6. Additional HSV-1 infected rats (n=6) received in the nose at the same time intervals 25 pL of the vehicle, phosphate buffered saline (PBS). On day 6, the animals were anaesthetized, a surgical incision made through the skin on the head, and the skull bone freed from periostium and connective tissue. A hole with a diameter of about 1 mm was drilled through the right parietal bone and a miniature pressure sensor inserted 3-5 mm into the brain or into the lateral ventricle. A fibre optic pressure measure system (Samba System 3200 & Samba Preclin 420 sensor; Samba Sensors AB, V Frolunda, Sweden) with a very small diameter, ve. 0.4 mm, was used. […] HSV-1 infected rats treated with just the vehicle were measured to have as high pressures as up to 30-45 mm Hg (FIG. 2a), considerably affect the animals as reflected by symptoms of neurological dysfunction of increasing severity. In contrast, HSV-1 infected rats treated from the time of infection with AF-16 twice daily had almost normal ICP, 8-14 mm Hg (FIG. 2 b).
Additional HSV-1 infected animals with distinctly overt symptoms were as well treated with 10 or 25 pg AF-16 intranasally, starting on day 5, 6 or 7, i.e. after having had the vehicle during the previous days. […] Thus, non of the acutely AF-16 treated rats had any persistent signs of deleterious ICP and thus no CS developed. […] That is seen in the mentioned figure (FIG. 5 a) as there is no red staining of the right half on the figure. However, treatment with 10 or 25 pg AF-16 intranasally turned the picture in HSV-1 infected rats as in the normal, non-infected ones. […] Thereby the outflow of CSF was restored and the ICP turned normal.

[3] = overt symptoms, 10 or 25 pg intranasally starting on day 5, 6 or 7

## VCHSKTRSNPENNVGL [AF-16]
[1]; EDL vessels occluded 1-3 hours, Samba pressure sensors
  pressure within the muscle compartment: turn about normal
[1]; vs vehicle
  extent and volume of muscle tissue damage (light microscopy): reduced the extent and volume of the tissue damage
[2]
  IL-1 concentration in CSF vs vehicle: no significant difference in the concentrations
  IL-6 concentration in CSF vs vehicle: no significant difference in the concentrations
  TNF-a concentration in CSF vs vehicle: no significant difference in the concentrations
HSV-1 infected rats; HSV-1 infected rats, 10 pg AF-16 intranasally twice daily from time of infection, day 6, normal rats 4-8, vehicle 30-45
  intracranial pressure (ICP): 8-14 mm Hg
HSV-1 infected rats; intranasal treatment twice daily from infection
  development of neurological dysfunctions: prevented the development of neurological dysfunctions
HSV-1 infected rats; [3]
  onset and duration of pressure reducing effect: detectable within an hour and lasted for several hours
  symptoms of neurological dysfunctions after acute treatment: turned reduced within half an hour and were not demonstrable any longer after one hour
